Laboratory results published in article PMC8537897, “Design, Synthesis and Biological Evaluation of Aromatase Inhibitors Based on Sulfonates and Sulfonamides of Resveratrol” (Pharmaceuticals, 2021).
Where two headings read alike, the source gives them in different places.

What was measured:
[1] = molecular target: T1, human aromatase (Homo sapiens, UniProt P11511); test: Aromatase inhibition, fluorimetric assay kit (Aromatase-CYP19A Inhibitor Screening kit, BioVision); type: biochemical
T1 construct: purchased BioVision, Milpitas, CA, USA
T1 sequence (P11511 1-503): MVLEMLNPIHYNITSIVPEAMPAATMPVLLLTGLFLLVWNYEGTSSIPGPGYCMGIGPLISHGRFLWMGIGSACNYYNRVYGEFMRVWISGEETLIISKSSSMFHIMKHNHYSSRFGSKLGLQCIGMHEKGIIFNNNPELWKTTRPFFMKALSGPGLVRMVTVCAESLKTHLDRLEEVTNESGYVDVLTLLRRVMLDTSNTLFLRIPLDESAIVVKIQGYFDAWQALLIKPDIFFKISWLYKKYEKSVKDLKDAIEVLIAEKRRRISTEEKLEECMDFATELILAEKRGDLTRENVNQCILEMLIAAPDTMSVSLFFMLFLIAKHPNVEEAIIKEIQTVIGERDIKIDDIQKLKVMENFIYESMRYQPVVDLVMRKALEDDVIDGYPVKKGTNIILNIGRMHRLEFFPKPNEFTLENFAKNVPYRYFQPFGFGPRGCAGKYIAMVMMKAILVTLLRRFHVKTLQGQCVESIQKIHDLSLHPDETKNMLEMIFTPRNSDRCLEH
Protocol: The activity was measured each minute for 60 min and the value obtained for each compound after 10 min was chosen to calculate the percentage of the aromatase inhibition.
The aromatase inhibitory activity was determined using a commercial fluorimetric assay kit (Aromatase-CYP19A Inhibitor Screening kit, BioVision, Milpitas, CA, USA), as reported elsewhere. The assay utilizes a fluorogenic aromatase substrate that is converted into a highly fluorescent metabolite detected in the visible range (Ex/Em 488/527 nm). […] During the incubation, the Aromatase Substrate/NADP+ mixture was prepared, and the reaction was started by adding 30 µL of this solution to each well (aside from the background control), reaching a final reaction volume of 100 µL/well. The fluorescence emission (527 nm) was measured immediately (within 1 min) by means of a fluorometer equipped with a 488 nm filter (GloMax®-Multi Detection System, Promega, Madison, WI, USA) and afterwards monitored for 60 min. […] The assay was performed in the same experimental conditions used for the initial screening of compounds. Dose–response curves were fitted with GraphPad Prism 5.0 (GraphPad Software, San Diego, CA, USA).

[2] = test system: MCF7 breast cancer cell line; test: Cell metabolic activity / viability (MTT assay) on MCF7; type: cell-based, human; conditions: for IC50: Homo sapiens, MTT, tested 0 to 500 µM;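 for all read-outs here: MTT optical density read-out in human MCF7 cells, normalised to DMSO vehicle-treated cells as 100%, with IC50 derived from fitted concentration–response curves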
Protocol: Human skin fibroblasts (HFF-1, CVCL_3285) and human breast cancer MCF7 (HTB-22™, CVCL_0031) were purchased from ATCC and maintained in Dulbecco’s modified Eagle’s medium (DMEM) high glucose (EuroClone, Milan, Italy) supplemented with 10% of fetal bovine serum (FBS) and 1% of penicillin/streptomycin (Gibco—Thermo Fisher Scientific, MD, USA).
Cell metabolic activity of HFF-1 and MCF7 cells was assessed by MTT (3-(4,5-Dimethylthiazol-2-yl)-2,5-Diphenyltetrazolium Bromide) test (Sigma Aldrich, Milan, Italy). […] After the established exposure times, cells were incubated with MTT (0.5 mg/mL) and the optical density was measured as reported elsewhere [63]. Results were expressed as the percentage of cells in the presence of vehicle (DMSO) set as 100% and each experiment was performed in triplicate (n = 3). Concentration–response curves and IC50 were fitted and calculated with GraphPad Prism 5.0 (GraphPad Software, San Diego, CA, USA).

[3] = Chemical stability by RP-nano-LC at 37 °C; type: physicochemical; conditions: 72 h, 100 µg/mL; for Chemical stability, basic conditions: 0.1 mM sodium hydroxide solution pH 9, 37 °C; for Chemical stability, acidic conditions: 10 mM hydrochloric acid buffer pH 2.0, 37 °C
Excerpt: The results were compared with corresponding sulfonamides 2b–c and 2j. […] Advantages including low consumption of mobile and stationary phases and minimal sample volumes make this analytical tool more cost-effective and eco-friendlier with respect to the conventional HPLC. In addition, the reduction in particle diameter and the use of short chromatographic capillary column allow rapid analyses in isocratic elution mode.
Due to the low solubility of some compounds in pure water, the study was performed in an aqueous solution containing ACN/H2O as mobile phase. These conditions led to the chromatographic separation of each compound within 6 min. […] The analyses were performed with a nano-LC apparatus at appropriate intervals for 72 h, maintaining the prepared samples at a temperature of 37 °C.
Detection wavelength was set at 206 nm, and data were collected using ClarityTM Advanced Chromatography Software (Data Apex Ltd., Prague, Czech Republic).
To reduce the flow rate from µ- to nL/min, the HPLC pump delivering MeOH continuously and the injector were connected to a passive split-flow system. For this purpose, both the HPLC pump and injection valve were joined to a stainless-steel T-piece (Vici, Valco, Houston, TX, USA) by means of 500 µm id stainless steel tubes with lengths of 50 and 5 cm, respectively. The third entrance of the T-piece was connected to the MeOH reservoir of the pump through a fused silica capillary (50 µm id × 50 cm), achieving continuous recycling of the organic solvent. To minimize the dead volume and consequently reduce the band broadening effect, the capillary column was directly inserted into the modified injector, which was used for both sample loading and mobile phase reservoir. Samples and mobile phases were introduced into the capillary column through the injection valve by filling the loop with the sample solutions, switching the valve for the appropriate time, and then flushing the loop with the mobile phase. The analysis started immediately after positioning the injector device in the injection mode. […] In the optimized conditions, the flow rate of the column was about 450 nL/min. Nano-LC experiments were performed in uncoated fused silica capillaries (100 μm internal diameter) from Composite Metal Services, Hallow, UK), packed in our laboratory following the slurry packing procedure as described previously. The capillary column was packed with ChromSpher C18, 3 μm particle size (Varian, Palo Alto, CA, USA) for 15 cm.
Chromatographic conditions and standards preparation were as follows: the nano-LC analyses were performed in the capillary column employing as mobile phase a mixture of ACN/H2O ([…]) containing a 10 mM sodium hydrocarbonate buffer, pH 8.5. […]

With `O=S(=O)(Cc1ccccc1)Oc1ccc(/C=C/c2ccccc2)cc1` [1j, 4-[(E)-2-Phenylvinyl]phenyl phenylmethanesulfonate] the inhibition at 1 µM [1] was 100%, the IC50 ([1]; tested at concentrations from 0.01 to 100 μM, mean of triplicate determinations) was 2210 nM and the IC50 ([2]; MCF7, 24 h, 24 h, read-out: MCF7 Cells IC50 24 h) was > 250 µM. For the same compound, the IC50 ([2]; MCF7, 72 h, 72 h, read-out: MCF7 Cells IC50 72 h) was > 250 µM, the “Viability (% of control) - 24 h” value ([2]; MCF7, 10 µM, 24 h) was 85.47 ± 6.41 % of control and the “Viability (% of control) - 72 h” value ([2]; MCF7, 10 µM, 72 h) was 96.53 ± 7.12 % of control. The “Viability (% of control) - 24 h” value ([2]; MCF7, 25 µM, 24 h) was 86.33 ± 14.64 % of control, the “Viability (% of control) - 72 h” value ([2]; MCF7, 25 µM, 72 h) was 95.30 ± 7.88 % of control and the “Viability (% of control) - 24 h” value ([2]; MCF7, 50 µM, 24 h) was 70.06 ± 3.80 % of control. For the same compound, the “Viability (% of control) - 72 h” value ([2]; MCF7, 50 µM, 72 h) was 87.57 ± 5.26 % of control, the “Viability (% of control) - 24 h” value ([2]; MCF7, 100 µM, 24 h) was 74.91 ± 9.24 % of control and the “Viability (% of control) - 72 h” value ([2]; MCF7, 100 µM, 72 h) was 72.67 ± 3.46 % of control. The “Viability (% of control) - 24 h” value ([2]; MCF7, 250 µM, 24 h) was 51.84 ± 3.08 % of control, the “Viability (% of control) - 72 h” value ([2]; MCF7, 250 µM, 72 h) was 69.54 ± 4.11 % of control and the “Viability (% of control) - 24 h” value ([2]; MCF7, 500 µM, 24 h) was 38.88 ± 5.23 % of control. For the same compound, the “Viability (% of control) - 72 h” value ([2]; MCF7, 500 µM, 72 h) was 46.31 ± 4.73 % of control, the “Chemical stability, basic conditions” value [3] was “highly degraded because of their precipitation in the basic solution” and the “Chemical stability, acidic conditions” value [3] was “stable over the entire range of time”.
In the case of `O=S(=O)(Cc1ccccc1)Nc1ccc(/C=C/c2ccccc2)cc1` [2j, 1-Phenyl-N-{4-[(E)-2-phenylvinyl]phenyl}methanesulfonamide], the “Chemical stability, basic conditions” value [3] is reported as “highly degraded because of their precipitation in the basic solution” and the “Chemical stability, acidic conditions” value [3] is reported as “stable over the entire range of time”.
